Assay results published in patent EP2601188B1, “HEPATITIS C VIRUS INHIBITORS” (Bristol-Myers Squibb Company, priority 2010, dated 2012).
Like-named read-outs stand apart in the source and are kept apart here.

Tested on: HCV 1b genotype
Assay: HCV Replicon assay (HCV-neo replicon cells, wild-type)
Assay type: cell-based
Settings: HCV 1b genotype replicon
Description: An HCV Replicon assay was utilized in the present disclosure, and was prepared, conducted and validated as described in commonly owned PCT/US2006/022197 and in O'Boyle et. al. Antimicrob Agents Chemother. 2005 Apr;49(4):1346-53. Assay methods incorporating luciferase reporters have also been used as described (Apath.com).
HCV-neo replicon cells and replicon cells containing mutations in the NS5A region were used to test the currently described family of compounds. The compounds were determined to have more than 10-fold less inhibitory activity on cells containing mutations than wild-type cells. Thus, the compounds of the present disclosure can be effective in inhibiting the function of the HCV NS5A protein and are understood to be as effective in combinations as previously described in application PCT/US2006/022197 and commonly owned WO/O4014852. Further, the compounds of the present disclosure can be effective against the HCV 1b genotype. It should also be understood that the compounds of the present disclosure can inhibit multiple genotypes of HCV. […] In one embodiment, compounds of the present disclosure are inhibitory versus 1a, 1b, 2a, 2b, 3a, 4a, and 5a genotypes.

[1] = Hepatitis C virus, values given in pM, read-out: EC50
[2] = Hepatitis C virus, class symbols, read-out: EC50 Range
[3] = Hepatitis C virus, values in nM, read-out: EC50

COC(=O)N[C@H](C(=O)N1[C@@H]2C[C@@H]2C[C@H]1c1nc2c([nH]1)-c1ccc(-c3ccc4[nH]c([C@@H]5C[C@H]6C[C@H]6N5C(=O)[C@@H](NC(=O)OC)C(C)C)nc4c3)cc1CCC2)C(C)C [J.24, methyl ((1S)-1-(((1R,3S,5R)-3-(8-(2-((1R,3S,5R)-2-((2S)-2-((methoxycarbonyl)amino)-3-methylbutanoyl)-2-azabicyclo[3.1.0]hex-3-yl)-1H-benzimidazol-5-yl)-1,4,5,6-tetrahydrobenzo[3,4]cyclohepta[1,2-d]imidazol-2-yl)-2-azabicyclo[3.1.0]hex-2-yl)carbonyl)-2-methylpropyl)carbamate]
EC50 [1]: 10 pM

O=C(Nc1cccc(-c2cnc(-c3ccc4[nH]c([C@@H]5CCCN5C(=O)CC5CC5)nc4c3)o2)c1)[C@@H]1CCCN1C(=O)CC1CC1 [J.53a, 1-(cyclopropylacetyl)-N-(3-(2-(2-((2S)-1-(cyclopropylacetyl)-2-pyrrolidinyl)-1H-benzimidazol-5-yl)-1,3-oxazol-5-yl)phenyl)-L-prolinamide]
EC50 [2]: 1e+06 to 1e+07 pM

COc1cccc2c(C(=O)N3CCC[C@H]3C(=O)Nc3ccc(-c4ncc(-c5ccc6[nH]c([C@@H]7CCCN7C(=O)c7nc(Cl)cc8c(OC)cccc78)nc6c5)o4)cc3)nc(Cl)cc12 [J.50c, 1-((3-chloro-5-methoxy-1-isoquinolinyl)carbonyl)-N-(4-(5-(2-((2S)-1-((3-chloro-5-methoxy-1-isoquinolinyl)carbonyl)-2-pyrrolidinyl)-1H-benzimidazol-5-yl)-1,3-oxazol-2-yl)phenyl)-L-prolinamide]
EC50 [2]: 1e+06 to 1e+07 pM | EC50 (Hepatitis C virus, value given in µM, read-out: EC50): > 1e+07 pM

(2R)-2-(dimethylamino)-N-(3-(5-(2-((2S)-1-((2R)-2-(dimethylamino)-2-phenylacetyl)-2-pyrrolidinyl)-1H-benzimidazol-5-yl)-1,3-oxazol-2-yl)phenyl)-2-phenylacetamide [J.48b]
EC50 (class symbols, read-out: EC50 Range): 4570 to 99000 pM

CCN(CC)[C@@H](C(=O)N1CCC[C@H]1c1nc2cc(C#Cc3cccc(-c4[nH]cnc4[C@@H]4CCCN4C(=O)[C@@H](c4ccccc4)N(CC)CC)c3)ccc2[nH]1)c1ccccc1 [J.28m, (1R)-2-((2S)-2-(5-(3-((2-((2S)-1-((2R)-2-(diethylamino)-2-phenylacetyl)-2-pyrrolidinyl)-1H-benzimidazol-5-yl)ethynyl)phenyl)-1H-imidazol-4-yl)-1-pyrrolidinyl)-N,N-diethyl-2-oxo-1-phenylethanamine]
EC50 [2]: 4570 to 99000 pM | EC50 [3]: 55700 pM

COC(=O)NC(C(=O)N1[C@@H](C)CC[C@H]1c1nc2ccc3cc(C#Cc4ccc5[nH]c([C@@H]6CC[C@H](C)N6C(=O)[C@@H](NC(=O)OC)C(C)C)nc5c4)ccc3c2[nH]1)C1CCOCC1 (stereo partly drawn) [J.28i.4a, methyl ((1S)-1-(((2S,5S)-2-(5-((2-((2S,5S)-1-(((methoxycarbonyl)amino)(tetrahydro-2H-pyran-4-yl)acetyl)-5-methyl-2-pyrrolidinyl)-1H-naphtho[1,2-d]imidazol-7-yl)ethynyl)-1H-benzimidazol-2-yl)-5-methyl-1-pyrrolidinyl)carbonyl)-2-methylpropyl)carbamate]
EC50 [3]: 3800 pM

CC(=O)N1CCC[C@H]1C(=O)Nc1ccc(CCc2ccc3nc([C@@H]4CCCN4C(=O)Cc4ccccc4)[nH]c3c2)cc1 [M.10, (S)-1-acetyl-N-(4-(2-(2-((S)-1-(2-phenylacetyl)pyrrolidin-2-yl)-1H-benzo[d]imidazol-6-yl)ethyl)phenyl)pyrrolidine-2-carboxamide]
EC50 [2]: 100000 to 999000 pM | EC50 [3]: 202000 pM

COC(=O)N[C@H](C(=O)N1CCC[C@H]1c1nc(-c2ccc(-c3ccc(-c4ccc5[nH]c([C@@H]6CCCN6C(=O)[C@@H](NC(=O)OC)C(C)C)nc5c4)cc3)cc2)c[nH]1)C(C)C [J.26, methyl ((1S)-1-(((2S)-2-(5-(4'-(2-((2S)-1-((2S)-2-((methoxycarbonyl)amino)-3-methylbutanoyl)-2-pyrrolidinyl)-1H-imidazol-4-yl)-4-biphenylyl)-1H-benzimidazol-2-yl)-1-pyrrolidinyl)carbonyl)-2-methylpropyl)carbamate]
EC50 [1]: 5 pM

O=C(Nc1ccc(-c2ncc(-c3ccc4[nH]c([C@@H]5CCCN5C(=O)[C@H](O)c5ccccc5)nc4c3)o2)cc1)[C@@H]1CCCN1C(=O)[C@H](O)c1ccccc1 [J.50, 1-((2R)-2-hydroxy-2-phenylacetyl)-N-(4-(5-(2-((2S)-1-((2R)-2-hydroxy-2-phenylacetyl)-2-pyrrolidinyl)-1H-benzimidazol-5-yl)-1,3-oxazol-2-yl)phenyl)-L-prolinamide]
EC50 [2]: 4570 to 99000 pM

COC(=O)N[C@@H](C(=O)N1CCC[C@H]1c1nc2cc(-c3ccc(-c4ccc5c(ccc6nc([C@@H]7CCCN7C(=O)[C@H](NC(=O)OC)c7ccccc7)[nH]c65)c4)cc3)ccc2[nH]1)c1ccccc1 [J.27c, methyl ((1R)-2-((2S)-2-(7-(4-(2-((2S)-1-((2R)-2-((methoxycarbonyl)amino)-2-phenylacetyl)-2-pyrrolidinyl)-1H-benzimidazol-5-yl)phenyl)-1H-naphtho[1,2-d]imidazol-2-yl)-1-pyrrolidinyl)-2-oxo-1-phenylethyl)carbamate]
EC50 [1]: 3 pM

COc1cccc2c(C(=O)N3CCC[C@H]3C(=O)Nc3ccc(-c4ncc(-c5ccc6[nH]c([C@@H]7CCCN7C(=O)c7nc(Cl)cc8c(OC)cccc78)nc6c5)o4)cc3F)nc(Cl)cc12 [J.51b, 1-((3-chloro-5-methoxy-1-isoquinolinyl)carbonyl)-N-(4-(5-(2-((2S)-1-((3-chloro-5-methoxy-1-isoquinolinyl)carbonyl)-2-pyrrolidinyl)-1H-benzimidazol-5-yl)-1,3-oxazol-2-yl)-2-fluorophenyl)-L-prolinamide]
EC50 [2]: 100000 to 999000 pM

O=C([C@@H](c1ccccc1)N1CCCCC1)N1CCC[C@H]1c1nc(C#Cc2ccc(-c3ccc4[nH]c([C@@H]5CCCN5C(=O)[C@@H](c5ccccc5)N5CCCCC5)nc4c3)cc2)c[nH]1 [JB.12, 2-((2S)-1-((2R)-2-phenyl-2-(1-piperidinyl)acetyl)-2-pyrrolidinyl)-5-(4-((2-((2S)-1-((2R)-2-phenyl-2-(1-piperidinyl)acetyl)-2-pyrrolidinyl)-1H-imidazol-4-yl)ethynyl)phenyl)-1H-benzimidazole]
EC50 [1]: 65.2 pM

O=C(Nc1cccc(-c2ncc(-c3ccc4[nH]c([C@@H]5CCCN5C(=O)CC5CC5)nc4c3)o2)c1)[C@@H]1CCCN1C(=O)CC1CC1 [J.53, 1-(cyclopropylacetyl)-N-(3-(5-(2-((2S)-1-(cyclopropylacetyl)-2-pyrrolidinyl)-1H-benzimidazol-5-yl)-1,3-oxazol-2-yl)phenyl)-L-prolinamide]
EC50 [2]: 100000 to 999000 pM

COc1cccc2c(C(=O)N3CCC[C@H]3C(=O)Nc3cccc(-c4ncc(-c5ccc6[nH]c([C@@H]7CCCN7C(=O)c7nc(Cl)cc8c(OC)cccc78)nc6c5)o4)c3)nc(Cl)cc12 [J.48d, 1-((3-chloro-5-methoxy-1-isoquinolinyl)carbonyl)-N-(3-(5-(2-((2S)-1-((3-chloro-5-methoxy-1-isoquinolinyl)carbonyl)-2-pyrrolidinyl)-1H-benzimidazol-5-yl)-1,3-oxazol-2-yl)phenyl)-L-prolinamide]
EC50 [2]: 100000 to 999000 pM | EC50 [3]: 147000 pM
